Laboratory results from patent US20110027348A1, “COMPOSITION AND METHOD INHIBITING INFLAMMATION” (priority 2007, published 2011).

Assays:
[1] = test system: neurogenic inflammation evoked by capsaicin; test: Capsaicin-evoked neurogenic inflammation in newborn rats (Example I/2); format: in vivo, Sprague Dawley rats
Experimental: Neurogenic inflammation was evoked in newborn ([…]) Sprague Dawley rats by intraperitoneal administration of capsaicin (50 mg/kg of body mass) as described in the literature (Acta Physiol. Hung. 1987; 69(3-4):323-32). Twenty-four hours before capsaicin injection 10 ml intravenous infusions each of CoQ10, or omega 3+vitamin E, or omega 3+vitamin E+CoQ10 were applied. Each of these combinations contained 1.0 g omega 3, 10 mg vitamin E and 10 mg CoQ10. […] Hypotensive shock and subsequent death were prevented by pre-treatment with omega 3+vitamin E in 26% and in the omega 3+vitamin E+CoQ10 in 64%, while in the control group only 22% survived. […] Six weeks after the capsaicin injection, corneal transparency and sensitivity returned to normal in the pre-treated groups, while in the control group reduced transparency and sensitivity were observed.

TNF-alpha = test: LPS-evoked immunogenic inflammation, TNF-alpha levels in monocyte/macrophage culture (Example I/1); format: cell-based; settings: RAW 264,7 culture, control 0%
Experimental: The purpose of this experimental model was to measure inhibitory influence of omega 3 fatty acids, vitamin E and CoQ10 separately and in combination, using methods disclosed in literature (J. Surg Res. 2002 September; 107(1):135-139). For evoking inflammation bacterial endotoxin (LPS) was used and changes in levels of a proinflammatory cytokin, TNF-alpha were measured in a monocyte/macrophage (RAW 264,7) culture. It is clear that both combinations show inhibition of inflammation, the 3 member combination a considerably higher one.

[2] = test system: retinal pigment epithelial (RPE) cells; test: Retinal cell culture, growth and differentiation of RPE cells (Example I/6); format: cell-based, Wistar rats; settings: 7 day stage, morphometric analysis, control 0%
Experimental: The aim of this study was to reveal the influence of omega 3 fatty acids, Vitamin E, CoQ10 and LB separately or in combination on the development and differentiation of retinal cells in culture (in vitro). Retinas of newborn (1-2 days) Wistar rats were isolated. and cultured as described in our previous paper (Int. J. Dev. Neurosc. 1998 August; 16(5):423-32). In six different combinations, the culture medium contained 10 g omega 3 fatty acids, 100 mg vitamin E, 100 mg CoQ10 and 0.05 microgram LB per 100 ml. At the 7 day stage size and differentiation of retinal pigment epithelial (RPE) cells were determined by morphometric analysis, as described in the cited work.

Structure (SMILES)	Neurogenic inflammation, acute features (survival; hypotensive shock and subsequent death prevented) ([1]; 10 ml i.v. infusion 24 hours before capsaicin 50 mg/kg i.p., control 22%) [%]	Neurogenic inflammation, chronic features ([1]; 10 ml i.v. infusion 24 hours before capsaicin, six weeks after capsaicin, control 20%) [%]	Decrease in proinflammatory cytokine levels in immunogenic inflammation: TNF-alpha (TNF-alpha) [%]	RPE differentiation [2] [%]	RPE growth [2] [%]
COC1=C(OC)C(=O)C(C/C=C(\C)CC/C=C(\C)CC/C=C(\C)CC/C=C(\C)CC/C=C(\C)CC/C=C(\C)CC/C=C(\C)CC/C=C(\C)CC/C=C(\C)CCC=C(C)C)=C(C)C1=O [CoQ10, ubiquinone 10]	22	25	−3	3	1
CC(=O)Oc1ccccc1C(=O)O [aspirin]			−21		
